Reference: patent US8841291B2, “Selective hydroxamic acid based MMP-12 and MMP-13 inhibitors” (Novartis AG, priority 2008, dated 2014)

Key:
Collagenase-3 (MMP-13) = Collagenase-3 (MMP-13) (Homo sapiens, UniProt P45452); assay: Collagenase-3 (MMP-13) inhibitory activity, fluorogenic peptide substrate assay; type: biochemical; settings: recombinant pro-collagenase-3 activated with 1 mM APMA; read-out: MMP13 IC50
Description: (§1) Stock solutions of inhibitors (0.03 mM-3 mM) are also prepared in DMSO. The inhibitors are diluted into the assay solutions, and the controls use an equal volume of DMSO so that the final DMSO concentration from the inhibitor and substrate dilutions in all assays is 1.0%. Assays are performed in an assay buffer (100 mM sodium chloride, 10 μM ZnCl. Sub 2, 10 mM CaCl2, 100 mM Tris-Cl pH7.5, 0.05% Brij-35), containing 1.0% DMSO from the substrate and inhibitor additions. The substrate concentration used in the assays is 5 μM. The assays are carried out at 20-25° C. […] The reaction mixtures are added in duplicate into appropriate wells of a 384-well assay plate. The reaction mixtures are preincubated with the inhibitors for 60 minutes The reactions are started by the addition of MMP substrate, and the fluorescence intensity changes are measured after 60 minutes The apparent enzyme activity in the presence of an inhibitor is then compared with that in the absence of any inhibitor to determine the inhibition effect of the inhibitor.
Collagenase-3 (MMP-13) inhibitory activity is determined as described above. Recombinant pro-collagenase-3 is activated with 1 mM APMA, and stored in the assay buffer after extensive dialysis in the assay buffer.

Gelatinase (MMP-2) = target: T1, Gelatinase (MMP-2) (Homo sapiens, UniProt P08253); assay: Gelatinase (MMP-2) inhibitory activity, fluorogenic peptide substrate assay; type: biochemical; settings: substrate 5 μM, 60 min preincubation, 20-25° C.; read-out: MMP2 IC50
T1 sequence (P08253 110-660): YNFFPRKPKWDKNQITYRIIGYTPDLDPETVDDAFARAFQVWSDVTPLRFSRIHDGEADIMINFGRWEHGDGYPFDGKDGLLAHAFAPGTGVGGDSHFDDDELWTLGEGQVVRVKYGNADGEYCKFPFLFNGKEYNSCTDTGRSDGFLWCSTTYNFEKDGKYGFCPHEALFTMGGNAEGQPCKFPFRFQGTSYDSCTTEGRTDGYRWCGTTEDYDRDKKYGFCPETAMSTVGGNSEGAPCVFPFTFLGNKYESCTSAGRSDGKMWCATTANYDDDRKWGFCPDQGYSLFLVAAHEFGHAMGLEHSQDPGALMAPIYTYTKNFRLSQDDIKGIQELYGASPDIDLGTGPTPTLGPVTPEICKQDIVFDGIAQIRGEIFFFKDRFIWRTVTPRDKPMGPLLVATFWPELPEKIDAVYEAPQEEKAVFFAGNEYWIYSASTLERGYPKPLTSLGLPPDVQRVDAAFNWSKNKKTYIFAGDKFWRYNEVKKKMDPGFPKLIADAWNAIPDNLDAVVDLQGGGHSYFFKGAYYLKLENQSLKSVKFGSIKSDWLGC
Description: as §1

Row | SMILES | IC50 (Collagenase-3 (MMP-13)) [µM] | IC50 (Gelatinase (MMP-2)) [µM]
1 | O=C(NO)[C@H]1CC=CCCN1S(=O)(=O)c1ccc2ccccc2c1 [Example 88, (R)-1-(Naphthalene-2-sulfonyl)-2,3,6,7-tetrahydro-1H-azepine-2-carboxylic acid hydroxyamide] | 0.0162 | 0.0635
2 | CC1(C)SCCN(S(=O)(=O)c2ccc3ccccc3c2)[C@H]1C(=O)NO [Example 90] | < 0.0003 | 0.0507
3 | O=C(NO)[C@H]1C2CCC(CC2)N1S(=O)(=O)c1ccc2ccccc2c1 [Example 91, (R)-2-(Naphthalene-2-sulfonyl)-2-aza-bicyclo[2.2.2]octane-3-carboxylic acid hydroxyamide] | 6.95 | 22.2
4 | CC(C)(C)[C@@H](NS(=O)(=O)c1ccc2ncccc2c1)C(=O)NO [Example 92, (R)—N-Hydroxy-3,3-dimethyl-2-(quinoline-6-sulfonylamino)-butyramide] | 0.225 | 0.765
5 | CC(C)(C)[C@@H](NS(=O)(=O)c1ccc2ccccc2c1)C(=O)NO [Example 93, (R)—N-Hydroxy-3,3-dimethyl-2-(naphthalene-2-sulfonylamino)-butyramide] | 0.09 | 0.6
6 | CC(C)CCN([C@@H](C(=O)NO)C(C)C)S(=O)(=O)c1nc2ccccc2s1 [Example 98, (R)-2-[(Benzothiazole-2-sulfonyl)-(3-methyl-butyl)-amino]-N-hydroxy-3-methyl-butyramide] | 0.063 | 0.713
